# Results taken from patent US20110071165A1, “Aza- and polyazanthranyl amides and their use as medicaments” (NOVARTIS AG, priority 2000, published 2011).
# Biological target: VEGFR II (KDR) kinase (Homo sapiens, UniProt P35968)
# Test: Inhibition of KDR kinase activity (33P-ATP incorporation into poly-(Glu4Tyr), phosphocellulose filter)
# Type: biochemical
# Conditions: 10 minutes at room temperature; substrate poly-(Glu4Tyr)
# Experimental: Stock solutions Stock solution A: 3 mM ATP in water pH 7.0 (−70° C.) Stock solution B: g-33P-ATP 1mCi/100 μl Stock solution C: poly-(Glu4Tyr) 10 mg/ml in water
# • Substrate solvent: 10 mM DTT, 10 mM manganese chloride 100 mM magnesium chloride • Enzyme solution: 120 mM Tris/HCl, pH 7,5, 10 μM sodium vanadium oxide
# 10 μl of substrate mix [10 μl vol ATP stock solution A+25 μCi g-33P-ATP (ca. 2.5 μl of stock solution B)+30 μl poly-(Glu4Tyr) stock solution C+1.21 ml substrate solvent], 10 μl inhibitor solution [substances corresponding to the dilutions, as a control 3% DMSO in substrate solvent] and 10 μl enzyme solution [11.25 μg enzyme stock solution (KDR or FLT-1 kinase) are diluted at 4° C. in 1.25 ml enzyme solution], are added to a tapering microtitre plate (without protein binding). The mixture is mixed thoroughly and incubated for 10 minutes at room temperature. Subsequently, 10 μl of stop solution (250 mM EDTA, pH 7.0) is added, mixed and 10 μl of the solution transferred to a P 81 phosphocellulose filter. Is is subsequently washed several times in 0.1 M phosphoric acid. The filter paper is dried, coated with MeltiLex and measured in a MicroBeta counter.
# The IC50 values are determined from the concentration of inhibitor required to inhibit the phosphate incorporation to 50% of the uninhibited incorporation after deducting the reference value (EDTA-stopped reaction).
# VEGFR II (KDR) kinase, sequence (P35968 20-1356, species assumed): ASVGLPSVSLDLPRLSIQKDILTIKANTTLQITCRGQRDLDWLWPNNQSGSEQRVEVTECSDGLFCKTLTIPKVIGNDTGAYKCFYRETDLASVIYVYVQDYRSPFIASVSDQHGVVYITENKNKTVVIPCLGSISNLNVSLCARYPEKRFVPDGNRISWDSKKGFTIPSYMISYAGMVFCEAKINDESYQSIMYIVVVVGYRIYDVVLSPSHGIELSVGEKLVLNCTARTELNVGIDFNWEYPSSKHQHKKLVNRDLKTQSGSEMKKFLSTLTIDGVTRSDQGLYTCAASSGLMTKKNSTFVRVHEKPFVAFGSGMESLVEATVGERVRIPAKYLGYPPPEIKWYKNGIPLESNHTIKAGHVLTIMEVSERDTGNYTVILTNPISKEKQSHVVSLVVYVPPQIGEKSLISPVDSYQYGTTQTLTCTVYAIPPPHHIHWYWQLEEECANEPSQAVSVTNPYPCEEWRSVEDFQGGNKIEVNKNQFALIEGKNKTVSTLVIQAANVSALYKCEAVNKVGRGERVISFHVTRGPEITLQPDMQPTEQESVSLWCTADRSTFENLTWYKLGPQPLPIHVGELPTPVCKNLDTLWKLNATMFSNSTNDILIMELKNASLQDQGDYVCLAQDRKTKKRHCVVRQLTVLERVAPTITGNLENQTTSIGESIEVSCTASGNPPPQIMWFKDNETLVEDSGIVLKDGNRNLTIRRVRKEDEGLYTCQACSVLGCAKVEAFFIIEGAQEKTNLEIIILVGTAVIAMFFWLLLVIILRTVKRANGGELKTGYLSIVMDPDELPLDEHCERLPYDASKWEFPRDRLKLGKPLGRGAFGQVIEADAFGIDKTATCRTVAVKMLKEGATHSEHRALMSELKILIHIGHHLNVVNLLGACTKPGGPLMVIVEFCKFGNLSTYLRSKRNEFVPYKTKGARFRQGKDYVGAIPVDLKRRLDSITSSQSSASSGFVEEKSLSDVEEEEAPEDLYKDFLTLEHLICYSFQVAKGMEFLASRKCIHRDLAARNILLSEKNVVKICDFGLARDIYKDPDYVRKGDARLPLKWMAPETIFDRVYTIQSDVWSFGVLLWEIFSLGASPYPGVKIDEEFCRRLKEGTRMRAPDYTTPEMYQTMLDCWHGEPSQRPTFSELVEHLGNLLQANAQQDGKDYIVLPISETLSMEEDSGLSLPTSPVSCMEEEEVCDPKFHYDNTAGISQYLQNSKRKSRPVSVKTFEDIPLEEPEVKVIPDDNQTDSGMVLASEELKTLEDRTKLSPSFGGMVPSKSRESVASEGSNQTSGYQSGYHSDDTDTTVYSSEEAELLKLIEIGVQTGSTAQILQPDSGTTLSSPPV
row,IC50,Compound
1,200 nM,O=C(Nc1cccc(C(F)(F)F)c1)c1cncnc1NCc1ccncc1 [Example 2.1]
2,100 nM,"O=C(Nc1cc2ccccc2cn1)c1cncnc1NCc1ccncc1 [Example 2.0, N-isoquinolin-3-yl-4-[(4-pyridyl)methyl]amino-pyrimidine-5-carboxylic acid amide]"
